Data from patent US20260140098A1, “METHOD FOR TREATING PLASMA SAMPLE CONTAINING (7aS,2'S)-2-OXO-CLOPIDOGREL AND METHOD FOR DETERMINING THE SAME” (CHENGDU SHIBEIKANG BIOMEDICAL TECHNOLOGY CO., LTD., priority 2021, published 2026).
Like-named read-outs stand apart in the source and are kept apart here.

Test: Stability of (7aS,2′S)-2-oxo-clopidogrel in plasma at −80° C., screening of reducing agent type (Example 5)
Type: in vitro ADME
Details: for recovery at 0 day, 0.1 ng/mL / recovery at 10 day, 0.1 ng/mL / recovery at 30 day, 0.1 ng/mL / recovery at 60 day, 0.1 ng/mL: theoretical 0.1 ng/mL; for recovery at 0 day, 0.1 ng/mL / recovery at 0 day, 12 ng/mL: day 0, read-out: Recovery rate; for recovery at 10 day, 0.1 ng/mL / recovery at 10 day, 12 ng/mL: day 10, read-out: Recovery rate; for recovery at 30 day, 0.1 ng/mL / recovery at 30 day, 12 ng/mL: day 30, read-out: Recovery rate; for recovery at 60 day, 0.1 ng/mL / recovery at 60 day, 12 ng/mL: day 60, read-out: Recovery rate; for recovery at 0 day, 12 ng/mL / recovery at 10 day, 12 ng/mL / recovery at 30 day, 12 ng/mL / recovery at 60 day, 12 ng/mL: theoretical 12.0 ng/mL
Protocol: S2. Plasma sample pre-treatment: taking 100 μl of the plasma, adding 5 μl of an internal standard working solution and 300 μl of acetonitrile respectively; after vortex mixing, centrifuging at 2-8° C. and 10,000 r/min for 10 min, and collecting the supernatant for later use.
S3. LC-MS/MS analysis: injecting 10 μl of the supernatant prepared from step S2 for determination, where the liquid chromatography conditions are: • the chromatographic column is Kinetex® 1.7 μm C18 100 A 100×2.1 mm; the column temperature is 40° C.; the mobile phase is acetonitrile-0.2% aqueous formic acid solution with a flow rate of 0.2 ml/min; and a gradient elution is carried out as specified in the table below:
ESI ion source, positive ion detection in multiple reaction monitoring mode (MRM); the quantitatively analyzed ions (7aS,2′S)-2-oxo-clopidogrel: m/z 338.100→155.000, IS: m/z 341.100→158.000, a capillary voltage of 4.0 KV, a cone voltage of 25 V, a desolvation gas temperature of 400° C. and a source temperature of 150° C. The optimal collision energy is 20 eV.
Blank plasma was taken and different antioxidants (DTT, TCEP, ME) were added to prepare plasma containing an antioxidant at a concentration of 100 mg/ml. Subsequently, standard series solution of (7aS,2′S)-2-oxo-clopidogrel was added separately to prepare quality control samples with two concentrations of (7aS,2′S)-2-oxo-clopidogrel (0.1 and 12.0 ng/ml), 3 samples for each concentration. They were placed in a refrigerator at −80° C., and the plasma samples at different placing time points were taken to examine the stability by pre-treating the plasma samples according to the method of S2 of Example 1, followed by LC/MS/MS determination according to the method of S3.

[1] = blank plasma containing DTT 100 mg/ml, DTT 100 mg/ml
[2] = blank plasma containing ME 100 mg/ml, ME 100 mg/ml
[3] = blank plasma containing TCEP 100 mg/ml, TCEP 100 mg/ml

**Q.** What does the source list for `COC(=O)[C@H](c1ccccc1Cl)N1CC[C@@H]2SC(=O)C=C2C1` [(7aS,2′S)-2-oxo-clopidogrel, methyl(S)-2-(2-chlorophenyl)-2-((S)-2-oxo-2,6,7,7a-tetrahydrothieno[3,2-c]pyridin-5 (4H)-yl)acetate]?
**A.** recovery at 0 day, 0.1 ng/mL [1]: 102%; recovery at 10 day, 0.1 ng/mL [1]: 103%; recovery at 30 day, 0.1 ng/mL [1]: 95.5%; recovery at 0 day, 0.1 ng/mL [2]: 102%; recovery at 10 day, 0.1 ng/mL [2]: 101%; recovery at 30 day, 0.1 ng/mL [2]: 91.5%; recovery at 60 day, 0.1 ng/mL [2]: 86.6%; recovery at 0 day, 12 ng/mL [2]: 101%; recovery at 10 day, 12 ng/mL [2]: 99.2%; recovery at 30 day, 12 ng/mL [2]: 96.5%; recovery at 60 day, 12 ng/mL [2]: 87.9%; recovery at 60 day, 0.1 ng/mL [3]: 101%; recovery at 0 day, 12 ng/mL [3]: 101%; recovery at 10 day, 12 ng/mL [3]: 100%; recovery at 30 day, 12 ng/mL [3]: 102%; recovery at 60 day, 12 ng/mL [3]: 101%; recovery at 60 day, 0.1 ng/mL (plasma, DTT 100 mg/ml): 89.9%; recovery at 0 day, 12 ng/mL (plasma, DTT 100 mg/ml): 101%; recovery at 10 day, 12 ng/mL (plasma, DTT 100 mg/ml): 100%; recovery at 30 day, 12 ng/mL (plasma, DTT 100 mg/ml): 98.9%; recovery at 60 day, 12 ng/mL (plasma, DTT 100 mg/ml): 92.4%; recovery at 0 day, 0.1 ng/mL (plasma, TCEP 100 mg/ml): 102%; recovery at 10 day, 0.1 ng/mL (plasma, TCEP 100 mg/ml): 105%; recovery at 30 day, 0.1 ng/mL (plasma, TCEP 100 mg/ml): 99.3%; Stability of plasma samples (in words) (with TCEP compared with DTT and ME, 100 mg/ml): better than that of the plasma samples with DTT and ME
